In the supplement of paper PMC10307832:

How the values were obtained:
Test in all cases: relative viability (nuclei count vs DMSO), 5 days (fraction); higher = more cells survive
CAL-12T = tested on: CAL-12T
In short: (§1)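 Values are medians from duplicate plates. Each reflects relative viability, defined as the nuclei count of treated wells over that of vehicle wells. Lung cancer cell lines in 1536-well plates were pin-tool dosed one day after seeding with one drug alone or with a fixed anchor-drug dose plus five library-drug doses (not always all listed) in √10 steps, then fixed, stained and imaged at 4× after 5 days.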

ChaGo-K-1 = tested on: ChaGo-K-1
In short: as §1

EMC-BAC-2 = tested on: EMC-BAC-2
In short: as §1

HCC-366 = tested on: HCC-366
In short: as §1

HCC-78 = tested on: HCC-78
In short: as §1

HOP-62 = tested on: HOP-62
In short: as §1

LC-2-ad = tested on: LC-2-ad
In short: as §1

LK-2 = tested on: LK-2
In short: as §1

NCI-H1355 = tested on: NCI-H1355
In short: as §1

NCI-H1734 = tested on: NCI-H1734
In short: as §1

NCI-H1993 = tested on: NCI-H1993
In short: as §1

NCI-H2009 = tested on: NCI-H2009
In short: as §1

NCI-H2085 = tested on: NCI-H2085
In short: as §1

NCI-H2228 = tested on: NCI-H2228
In short: as §1

NCI-H2347 = tested on: NCI-H2347
In short: as §1

NCI-H2405 = tested on: NCI-H2405
In short: as §1

NCI-H3122 = tested on: NCI-H3122
In short: as §1

NCI-H596 = tested on: NCI-H596
In short: as §1

NCI-H838 = tested on: NCI-H838
In short: as §1

PC-14 = tested on: PC-14
In short: as §1

RERF-LC-KJ = tested on: RERF-LC-KJ
In short: as §1

SK-MES-1 = tested on: SK-MES-1
In short: as §1

SW 1573 = tested on: SW 1573
In short: as §1

`Cc1cnc(-c2cnc(NCCNc3ccc(C#N)cn3)nc2-c2ccc(Cl)cc2Cl)[nH]1` + C[C@@H](Oc1cc(-c2cnn(C3CCNCC3)c2)cnc1N)c1c(Cl)ccc(F)c1Cl [Crizotinib] (partner 1 µM) showed a relative viability (CAL-12T; first compound 0.08 µM) of 0.722, a relative viability (CAL-12T; first compound 0.253 µM) of 0.507 and a relative viability (CAL-12T; first compound 0.8 µM) of 0.529. It also gave a relative viability (CAL-12T; first compound 2.53 µM) of 0.376, a relative viability (ChaGo-K-1; first compound 0.08 µM) of 1.17 and a relative viability (ChaGo-K-1; first compound 0.253 µM) of 0.999. The relative viability (ChaGo-K-1; first compound 0.8 µM) was 1.06, the relative viability (ChaGo-K-1; first compound 2.53 µM) was 0.989 and the relative viability (EMC-BAC-2; first compound 0.08 µM) was 0.841. The relative viability (EMC-BAC-2; first compound 0.253 µM) was 0.739, the relative viability (EMC-BAC-2; first compound 0.8 µM) was 0.814 and the relative viability (EMC-BAC-2; first compound 2.53 µM) was 0.703. For the same compound, the relative viability (HCC-366; first compound 0.08 µM) was 0.654, the relative viability (HCC-366; first compound 0.253 µM) was 0.408 and the relative viability (HCC-366; first compound 0.8 µM) was 0.534. It also gave a relative viability (HCC-366; first compound 2.53 µM) of 0.422, a relative viability (HCC-78; first compound 0.08 µM) of 0.349 and a relative viability (HCC-78; first compound 0.253 µM) of 0.336. For the same compound, the relative viability (HCC-78; first compound 0.8 µM) was 0.297, the relative viability (HCC-78; first compound 2.53 µM) was 0.362 and the relative viability (HOP-62; first compound 0.08 µM) was 0.892. It also gave a relative viability (HOP-62; first compound 0.253 µM) of 0.816, a relative viability (HOP-62; first compound 0.8 µM) of 0.997 and a relative viability (HOP-62; first compound 2.53 µM) of 0.853. It also gave a relative viability (LC-2-ad; first compound 0.08 µM) of 0.489, a relative viability (LC-2-ad; first compound 2.53 µM) of 0.426 and a relative viability (LK-2; first compound 0.08 µM) of 0.194. The relative viability (LK-2; first compound 0.253 µM) was 0.239, the relative viability (LK-2; first compound 0.8 µM) was 0.242 and the relative viability (LK-2; first compound 2.53 µM) was 0.236. For the same compound, the relative viability (NCI-H1355; first compound 0.08 µM) was 1.1, the relative viability (NCI-H1355; first compound 0.253 µM) was 0.9 and the relative viability (NCI-H1355; first compound 0.8 µM) was 1. It also gave a relative viability (NCI-H1355; first compound 2.53 µM) of 0.992, a relative viability (NCI-H1734; first compound 0.08 µM) of 0.65 and a relative viability (NCI-H1734; first compound 0.253 µM) of 0.636. It also gave a relative viability (NCI-H1734; first compound 0.8 µM) of 0.647, a relative viability (NCI-H1734; first compound 2.53 µM) of 0.631 and a relative viability (NCI-H1993; first compound 0.08 µM) of 0.804. It also gave a relative viability (NCI-H1993; first compound 0.253 µM) of 0.861, a relative viability (NCI-H1993; first compound 0.8 µM) of 0.884 and a relative viability (NCI-H1993; first compound 2.53 µM) of 0.954. The relative viability (NCI-H2009; first compound 0.08 µM) was 1.09, the relative viability (NCI-H2009; first compound 0.253 µM) was 0.958 and the relative viability (NCI-H2009; first compound 0.8 µM) was 1. It also gave a relative viability (NCI-H2009; first compound 2.53 µM) of 0.892, a relative viability (NCI-H2085; first compound 0.08 µM) of 0.719 and a relative viability (NCI-H2085; first compound 0.253 µM) of 0.888. The relative viability (NCI-H2085; first compound 0.8 µM) was 1.06, the relative viability (NCI-H2085; first compound 2.53 µM) was 0.974 and the relative viability (NCI-H2228; first compound 0.08 µM) was 0.47. For the same compound, the relative viability (NCI-H2228; first compound 0.253 µM) was 0.412, the relative viability (NCI-H2228; first compound 0.8 µM) was 0.612 and the relative viability (NCI-H2228; first compound 2.53 µM) was 0.619. For the same compound, the relative viability (NCI-H2347; first compound 0.08 µM) was 0.734, the relative viability (NCI-H2347; first compound 0.253 µM) was 0.632 and the relative viability (NCI-H2347; first compound 0.8 µM) was 0.753. For the same compound, the relative viability (NCI-H2347; first compound 2.53 µM) was 0.741, the relative viability (NCI-H2405; first compound 0.08 µM) was 0.883 and the relative viability (NCI-H2405; first compound 0.253 µM) was 0.774. The relative viability (NCI-H2405; first compound 0.8 µM) was 0.797, the relative viability (NCI-H2405; first compound 2.53 µM) was 0.809 and the relative viability (NCI-H3122; first compound 0.08 µM) was 0.285. The relative viability (NCI-H3122; first compound 0.253 µM) was 0.319, the relative viability (NCI-H3122; first compound 0.8 µM) was 0.253 and the relative viability (NCI-H3122; first compound 2.53 µM) was 0.304. The relative viability (NCI-H596; first compound 0.08 µM) was 0.921, the relative viability (NCI-H596; first compound 0.253 µM) was 0.906 and the relative viability (NCI-H596; first compound 0.8 µM) was 0.968. It also gave a relative viability (NCI-H596; first compound 2.53 µM) of 0.927, a relative viability (NCI-H838; first compound 0.08 µM) of 0.855 and a relative viability (NCI-H838; first compound 0.253 µM) of 0.807. For the same compound, the relative viability (NCI-H838; first compound 0.8 µM) was 0.951, the relative viability (NCI-H838; first compound 2.53 µM) was 1.01 and the relative viability (PC-14; first compound 0.08 µM) was 0.911. The relative viability (PC-14; first compound 0.253 µM) was 0.811, the relative viability (PC-14; first compound 0.8 µM) was 0.896 and the relative viability (PC-14; first compound 2.53 µM) was 0.807. It also gave a relative viability (RERF-LC-KJ; first compound 0.08 µM) of 0.833, a relative viability (RERF-LC-KJ; first compound 0.253 µM) of 0.712 and a relative viability (RERF-LC-KJ; first compound 0.8 µM) of 0.794. It also gave a relative viability (RERF-LC-KJ; first compound 2.53 µM) of 0.846, a relative viability (SK-MES-1; first compound 0.08 µM) of 0.97 and a relative viability (SK-MES-1; first compound 0.253 µM) of 0.937. The relative viability (SK-MES-1; first compound 0.8 µM) was 1.05, the relative viability (SK-MES-1; first compound 2.53 µM) was 0.941 and the relative viability (SW 1573; first compound 0.08 µM) was 0.932. For the same compound, the relative viability (SW 1573; first compound 0.253 µM) was 0.879, the relative viability (SW 1573; first compound 0.8 µM) was 0.785 and the relative viability (SW 1573; first compound 2.53 µM) was 0.772.
